# What was measured:
# [1] = Absorbance and fluorescence spectra of the agents; assay type: physicochemical; details: for Excitation (DMSO): excitation maximum in 100% DMSO; for Excitation(MeOH): excitation maximum in absolute methanol; for ExcitationddH2O: excitation maximum in distilled/deionized water; for Emission(DMSO): fluorescence emission maximum in DMSO; for Emission(MeOH): fluorescence emission maximum in MeOH; for EmissionddH2O: fluorescence emission maximum in ddH2O
# Description: Absorbance spectra of the agents were measured using a UV-Vis spectrometer (PerkinElmer Lambda™ 20, PerkinElmer, Inc., Waltham Mass.) in wavelengths ranging from 200-to-800 nm in 100% dimethylsulfoxide (DMSO), absolute methanol (MeOH), and distilled/deionized water (ddH2O). The wavelength corresponding to the maximum absorbance is recorded and used as the excitation wavelength for future fluorescence measurements.
# The fluorescence spectra of the agents were collected in DMSO, MeOH, and ddH2O under continuous excitation using a xenon short arc light source (Ushio UXL 75W, Ushio America, Inc., Cyress Calif.) equipped fluorimeter (350-900 nm; PTI Fluorimeter, Photon Technology International Birmingham, N.J.). A+ indicates binding to nerves using the ex vivo histochemical assay.
# [2] = system: nerve tissue sections; experiment: Ex vivo staining of nerve tissue sections by the agents (histochemical assay); assay type: binding, rat; parameters: key to Nerve binding, ex vivo: A+ indicates binding to nerves using the ex vivo histochemical assay; details: for Nerve binding, ex vivo: 10 uM agent, 20 minutes, nerve tissue sections; for staining of the trigeminal nerves: rat trigeminal nerve sections, FIG. 1
# From the text: Various nerves including sciatic, femoral, brachial plexus, trigeminal, optic, and penile were harvested from male Sprague Dawley rats or male CD-1 mice. Tissue was fixed by perfusion and/or post-fixation with formalin. Following post-fixation, tissue was cryoprotected in a 20% sucrose solution made in phosphate buffered saline (PBS). Nerves were then flash-frozen using methanol and dry ice in OCT media. In some cases, PVDF membranes were used to help keep the nerves vertical in the OCT media. Thin sections (5-10 microns) were sliced on a Leica microtome (Leica Microsystems GmbH, Wetzlar Germany) and stored in a −80° C. freezer prior to staining with agents (1)-(5).
# The agents were dissolved in DMSO to make a 10 mM stock solution. Slides containing nerve tissue sections were rinsed three times with PBS. The tissue sections were incubated with a solution of 10 uM of each fluorophore diluted in either PBS or a mixture of 99 uL DMSO, 100 uL cremaphor, 600 uL rat serum, and 200 uL PBS for 20 minutes. The slides were then washed with PBS for 5 min three times, cover-slipped with Vectashield and imaged on a Zeiss Axioimager microscope (Carl Zeiss Meditec, Inc., Oberkochen, Germany) at 200× magnification. A custom filter cube (excitation filter: 387 nm with 11 nm bandpass, 409 nm dichroic mirror; emission filter 409 nm long pass) was used to collect images for examination of morphology and for image analysis.
# The control slides, containing the nerves with no agent (not shown), was negative under the same imaging conditions.
# [3] = Dynamic light scattering measurement of aqueous solubility; assay type: physicochemical; details: 25° C., angle of 173°, in nm (unit assumed)
# Description: Dynamic light scattering spectroscopy was used to measure aqueous solubility. Measurements were collected on a Malvern HPPS500 spectrometer (Malvern Instruments Inc., Southborough, Mass.). Samples were measured in a low volume disposable cuvette at 25° C., at an angle of 173°. Each sample was analyzed in duplicate. Z average measurements were taken to determine the relative molecular “size” of the formulation in terms of the hydrodynamic diameter (DH) radius in solution. DH is inversely related the z-average translational diffusion coefficient (D) in the solution.
# [4] = system: nerves; experiment: In vivo fluorescence imaging of nerves; parameters: species or system mice; details: for nerve-to-adipose tissue ratio: fluorescence emission of 600 nm, compared to agents (4) and (5), FIG. 2
# Description: To assess the efficacy of the sulfonamide agents in-vivo the agents were formulated using the following excipients: 5-20% propylene glycol (v/v; JT Baker 9402-01), 5-30% 2-Hydroxylpropyl-β-Cyclodextrin (w/v; Sigma H5784) and 70-90% distilled/deionized water (v/v).
# To prepare the pharmaceutical carrier, each excipient is added individually beginning with propylene glycol. Propylene glycol is added directly to the agent and vortexed for approximately 1 minute to guarantee maximal dispersal of the agent in the excipient. The next excipient to be added to the solution is 2-Hydroxylpropyl-β-Cyclodextrin. Cyclodextrin's are cyclic (R-1,4) linked oligosaccharides containing a relatively hydrophobic central cavity and hydrophilic outer surface. The application of cyclodextrin in formulation is to enhance the solubility of a compound in aqueous solutions. In formulation of the sulfonamide analogs a final concentration of 5-15%; 2-Hydroxypropyl β-cyclodextrin (w/v) is added to the solution. The formulation is again vortexed for 1-5 minutes and the pH adjusted to a final range between 4-5. The final step in the formulation is to bring the solution to the volume with distilled/deionized water.
# Male CD-1 mice between 25-35 grams were purchased from Charles River Laboratories (Wilmington, Mass.). Prior to administration of the agent, animals were briefly anesthetized using 2% isofluorane. Each agent was then administered in a 15.2 mg/kg dose via tail vein catheterization. Each rodent was allowed to recover from anesthesia prior to returning to the home cage.
# Structure (2) and (3) were administered at an average of 15 mg/kg formulated in the pharmaceutical carrier. Formulated agents were administered in mice 4 hours prior to imaging using a Zeiss Lumara microscope (Carl Zeiss Meditec, Inc., Oberkochen, Germany) with an attached CRI Nuance™ camera for multispectral fluorescence imaging (Cambridge Research & Instrumentation, Inc., Woburn, Mass.). The excitation wavelengths used were 406/15 nm or 460/60 nm.
# The adjacent muscle tissues had very low background binding. […]
SMILES,Excitation (DMSO) [1],Excitation(MeOH) [1],ExcitationddH2O [1],Emission(DMSO) [1],Emission(MeOH) [1],EmissionddH2O [1],"Nerve binding, ex vivo [2]",Z-average [3],"time at which nerve-to-muscle ratio is best ([4]; mice, FIG. 4)",staining of the trigeminal nerves [2],nerve-to-adipose tissue ratio [4]
COc1cc(/C=C/c2ccc(S(=O)(=O)N3CCOCC3)cc2)ccc1/C=C/c1ccc(N)cc1 [(1)],422 nm,392 nm,380 nm,621 nm,604 nm,581 nm,+,,,myelinated donut-shaped structures are visible,
COc1cc(/C=C/c2ccc(S(=O)(=O)N(CCO)CCO)cc2)ccc1/C=C/c1ccc(N)cc1 [(2)],392 nm,391 nm,409 nm,600 nm,680 nm,620 nm,+,,,myelinated donut-shaped structures are visible,
COc1cc(/C=C/c2ccc(S(=O)(=O)N3CCN(CCO)CC3)cc2)ccc1/C=C/c1ccc(N)cc1.Cl [(3)],388 nm,380 nm,412 nm,615 nm,488 nm,626 nm,+,29.70,,myelinated donut-shaped structures are visible,
COc1cc(/C=C/c2ccc(S(=O)(=O)N(CCO)CCO)cc2)ccc1/C=C/c1ccc(N)cc1 [Structure 2],,,,,,,,,,,higher
COc1cc(/C=C/c2ccc(S(=O)(=O)N3CCN(CCO)CC3)cc2)ccc1/C=C/c1ccc(N)cc1.Cl [Structure 3],,,,,,,,,,,higher

# More lines, main results first:
Excitation (DMSO) [1],Excitation(MeOH) [1],ExcitationddH2O [1],Emission(DMSO) [1],Emission(MeOH) [1],EmissionddH2O [1],"Nerve binding, ex vivo [2]",Z-average [3],"time at which nerve-to-muscle ratio is best ([4]; mice, FIG. 4)",SMILES,staining of the trigeminal nerves [2],nerve-to-adipose tissue ratio [4]
,,,,,,,2210.00,,COc1cc(/C=C/c2ccc(S(C)(=O)=O)cc2)ccc1/C=C/c1ccc(N)cc1 [(4)],,
,,,,,,,7365.00,four,COc1cc(/C=C/c2ccc(C#N)cc2)ccc1/C=C/c1ccc(N)cc1 [(5)],,

# — patent publication US8658129B2, “Agents and methods for the imaging of myelin basic protein” (General Electric Company, priority 2009, dated 2014)
